According to patent US9781930B2, “3′-substituted-abscisic acid derivatives” (Valent BioSciences Corporation, priority 2014, dated 2017):

Tested on: Arabidopsis thaliana seed
Assay: Seed germination inhibition assay for testing Examples 1-28 and 47-50
Assay type: in vivo
Set-up: key to Arabidopsis seed germination inhibition potency: + + + +: The other derivatives were scored by potency relative to S-ABA.; (S)-ABA potency = + + +.; + +: The other derivatives were scored by potency relative to S-ABA.; ++: The other derivatives were scored by potency relative to S-ABA.; +: The other derivatives were scored by potency relative to S-ABA.; −− = no effect
Conditions: for Arabidopsis seed germination inhibition potency: 0.01-10.0 ppm in 96-well plates, scored on day 7, relative to (S)-ABA; for germination inhibition potency compared to (S)-ABA (in words): Arabidopsis seed germination
Method: Seed Germination Inhibition Assay for Testing Examples 1-28 and 47-50 To determine the germination inhibition potency of the (S)-ABA derivatives, germination assays were performed with the model plant Arabidopsis thaliana. Arabidopsis seed was sterilized by shaking for five minutes in 200-proof ethanol, and followed by shaking for five minutes in a 10% bleach solution. The seeds were then washed five times in sterile, distilled, de-ionized water and suspended in 0.1% phytoagar. The tubes containing the seeds were wrapped in aluminum foil and stratified at 4° C. for two days. All compounds were tested at eight concentrations of 0 (DMSO control), 0.01, 0.03, 0.1, 0.3, 1.0, 3.0, and 10.0 ppm in 96-well plates. Each plate contained eight replicates of each concentration of the test compound and eight replicates of (S)-ABA at 0.1 ppm as the positive control. As an additional set of controls, each run of the assay also contained one plate dosed with (S)-ABA covering a range of concentrations up to 10 ppm. For each compound, 10× stock solutions corresponding to each of the tested concentrations were prepared in distilled and de-ionized water containing 5% DMSO. The stock test solution (10 μL) was added to each well according to the scheme described above, and 90 μL of ½× Murashige and Skoog media containing 1.2% Bactoagar was then added to each well (final DMSO concentration was 0.5%). When the media solidified, ten to fifteen sterile stratified Arabidopsis seeds were distributed into each well using a repeat pipettor. The plates were sealed with surgical tape and placed in a growth chamber running diurnal cycles of 12 hours of light at 24° C. and 12 hours of darkness at 19° C. The plates were scanned on days 3 through 7, and scored on day 7. The 3′-substituted-(S)-ABA derivatives were scored on ability to inhibit germination relative to the potency of (S)-ABA. The results are summarized below in “Table 1: Arabidopsis seed germination inhibition activity of (S)-ABA derivatives.”

CCC1=C(C)[C@](O)(/C=C/C(C)=C\C(=O)OC)C(C)(C)CC1=O [Example 1, (2Z,4E)-methyl 5-((S)-3-ethyl-1-hydroxy-2,6,6-trimethyl-4-oxocyclohex-2-en-1-yl)-3-methylpenta-2,4-dienoate]
Arabidopsis seed germination inhibition potency: + + + | germination inhibition potency compared to (S)-ABA (in words): just as effective as (S)-ABA

CCC1=C(C)[C@](O)(/C=C/C(C)=C\C(=O)O)C(C)(C)CC1=O [Example 2, (2Z,4E)-5-((S)-3-ethyl-1-hydroxy-2,6,6-trimethyl-4-oxocyclohex-2-en-1-yl)-3-methylpenta-2,4-dienoic acid]
Arabidopsis seed germination inhibition potency: + + + | germination inhibition potency compared to (S)-ABA (in words): just as effective as (S)-ABA

CCCC1=C(C)[C@](O)(/C=C/C(C)=C\C(=O)O)C(C)(C)CC1=O [Example 3, (2Z,4E)-5-((S)-1-hydroxy-2,6,6-trimethyl-4-oxo-3-propylcyclohex-2-en-1-yl)-3-methylpenta-2,4-dienoic acid]
Arabidopsis seed germination inhibition potency: + +

C=CCC1=C(C)[C@](O)(/C=C/C(C)=C\C(=O)O)C(C)(C)CC1=O [Example 4, (2Z,4E)-5-((S)-3-allyl-1-hydroxy-2,6,6-trimethyl-4-oxocyclohex-2-en-1-yl)-3-methylpenta-2,4-dienoic acid]
Arabidopsis seed germination inhibition potency: + + + | germination inhibition potency compared to (S)-ABA (in words): just as effective as (S)-ABA

C#CCC1=C(C)[C@](O)(/C=C/C(C)=C\C(=O)O)C(C)(C)CC1=O [Example 5, (2Z,4E)-5-((S)-1-hydroxy-2,6,6-trimethyl-4-oxo-3-(prop-2-yn-1-yl)cyclohex-2-en-1-yl)-3-methylpenta-2,4-dienoic acid]
Arabidopsis seed germination inhibition potency: + + + + | germination inhibition potency compared to (S)-ABA (in words): more potent than (S)-ABA

CCCCC1=C(C)[C@](O)(/C=C/C(C)=C\C(=O)O)C(C)(C)CC1=O [Example 6, (2Z,4E)-5-((S)-3-butyl-1-hydroxy-2,6,6-trimethyl-4-oxocyclohex-2-en-1-yl)-3-methylpenta-2,4-dienoic acid]
Arabidopsis seed germination inhibition potency: +

CC1=C(CCCCO)C(=O)CC(C)(C)[C@@]1(O)/C=C/C(C)=C\C(=O)O [Example 7, (2Z,4E)-5-((S)-1-hydroxy-3-(4-hydroxybutyl)-2,6,6-trimethyl-4-oxocyclohex-2-en-1-yl)-3-methylpenta-2,4-dienoic acid]
Arabidopsis seed germination inhibition potency: −−

CCCCCC1=C(C)[C@](O)(/C=C/C(C)=C\C(=O)O)C(C)(C)CC1=O [Example 8, (2Z,4E)-5-((S)-1-hydroxy-2,6,6-trimethyl-4-oxo-3-pentylcyclohex-2-en-1-yl)-3-methylpenta-2,4-dienoic acid]
Arabidopsis seed germination inhibition potency: −−

CC1=C(CC(=O)OC(C)(C)C)C(=O)CC(C)(C)[C@@]1(O)/C=C/C(C)=C\C(=O)O [Example 9, (2Z,4E)-5-((S)-3-(2-(tert-butoxy)-2-oxoethyl)-1-hydroxy-2,6,6-trimethyl-4-oxocyclohex-2-en-1-yl)-3-methylpenta-2,4-dienoic acid]
Arabidopsis seed germination inhibition potency: −−

CC1=C(CC(=O)O)C(=O)CC(C)(C)[C@@]1(O)/C=C/C(C)=C\C(=O)O [Example 10, (2Z,4E)-5-((S)-3-(carboxymethyl)-1-hydroxy-2,6,6-trimethyl-4-oxocyclohex-2-en-1-yl)-3-methylpenta-2,4-dienoic acid]
Arabidopsis seed germination inhibition potency: −−

CC1=C(CC#N)C(=O)CC(C)(C)[C@@]1(O)/C=C/C(C)=C\C(=O)O [Example 11, (2Z,4E)-5-((S)-3-(cyanomethyl)-1-hydroxy-2,6,6-trimethyl-4-oxocyclohex-2-en-1-yl)-3-methylpenta-2,4-dienoic acid]
Arabidopsis seed germination inhibition potency: ++

CC1=C(CC(=O)N(C)C)C(=O)CC(C)(C)[C@@]1(O)/C=C/C(C)=C\C(=O)O [Example 12, (2Z,4E)-5-((S)-3-(2-(dimethylamino)-2-oxoethyl)-1-hydroxy-2,6,6-trimethyl-4-oxocyclohex-2-en-1-yl)-3-methylpenta-2,4-dienoic acid]
Arabidopsis seed germination inhibition potency: −−

CC1=C(Cc2ccccc2)C(=O)CC(C)(C)[C@@]1(O)/C=C/C(C)=C\C(=O)O [Example 13, (2Z,4E)-5-((S)-3-benzyl-1-hydroxy-2,6,6-trimethyl-4-oxocyclohex-2-en-1-yl)-3-methylpenta-2,4-dienoic acid]
Arabidopsis seed germination inhibition potency: −−

CC1=C(Cc2ccc3ccccc3c2)C(=O)CC(C)(C)[C@@]1(O)/C=C/C(C)=C\C(=O)O [Example 14, (2Z,4E)-5-((S)-1-hydroxy-2,6,6-trimethyl-3-(naphthalen-2-ylmethyl)-4-oxocyclohex-2-en-1-yl)-3-methylpenta-2,4-dienoic acid]
Arabidopsis seed germination inhibition potency: −−

CC1=C(Cc2cccc3ccccc23)C(=O)CC(C)(C)[C@@]1(O)/C=C/C(C)=C\C(=O)O [Example 15, (2Z,4E)-5-((S)-1-hydroxy-2,6,6-trimethyl-3-(naphthalen-1-ylmethyl)-4-oxocyclohex-2-en-1-yl)-3-methylpenta-2,4-dienoic acid]
Arabidopsis seed germination inhibition potency: −−

CC1=C(Cc2ccccc2C)C(=O)CC(C)(C)[C@@]1(O)/C=C/C(C)=C\C(=O)O [Example 16, (2Z,4E)-5-((S)-1-hydroxy-2,6,6-trimethyl-3-(2-methylbenzyl)-4-oxocyclohex-2-en-1-yl)-3-methylpenta-2,4-dienoic acid]
Arabidopsis seed germination inhibition potency: −−

CC1=C(Cc2cccc(C)c2)C(=O)CC(C)(C)[C@@]1(O)/C=C/C(C)=C\C(=O)O [Example 17, (2Z,4E)-5-((S)-1-hydroxy-2,6,6-trimethyl-3-(3-methylbenzyl)-4-oxocyclohex-2-en-1-yl)-3-methylpenta-2,4-dienoic acid]
Arabidopsis seed germination inhibition potency: −−

CC1=C(Cc2ccc(C)cc2)C(=O)CC(C)(C)[C@@]1(O)/C=C/C(C)=C\C(=O)O [Example 18, (2Z,4E)-5-((S)-1-hydroxy-2,6,6-trimethyl-3-(4-methylbenzyl)-4-oxocyclohex-2-en-1-yl)-3-methylpenta-2,4-dienoic acid]
Arabidopsis seed germination inhibition potency: −−

CC1=C(Cc2ccccc2F)C(=O)CC(C)(C)[C@@]1(O)/C=C/C(C)=C\C(=O)O [Example 19, (2Z,4E)-5-((S)-3-(2-fluorobenzyl)-1-hydroxy-2,6,6-trimethyl-4-oxocyclohex-2-en-1-yl)-3-methylpenta-2,4-dienoic acid]
Arabidopsis seed germination inhibition potency: −−

CC1=C(Cc2cccc(F)c2)C(=O)CC(C)(C)[C@@]1(O)/C=C/C(C)=C\C(=O)O [Example 20, (2Z,4E)-5-((S)-3-(3-fluorobenzyl)-1-hydroxy-2,6,6-trimethyl-4-oxocyclohex-2-en-1-yl)-3-methylpenta-2,4-dienoic acid]
Arabidopsis seed germination inhibition potency: −−

CC1=C(Cc2ccc(F)cc2)C(=O)CC(C)(C)[C@@]1(O)/C=C/C(C)=C\C(=O)O [Example 21, (2Z,4E)-5-((S)-3-(4-fluorobenzyl)-1-hydroxy-2,6,6-trimethyl-4-oxocyclohex-2-en-1-yl)-3-methylpenta-2,4-dienoic acid]
Arabidopsis seed germination inhibition potency: −−

CC1=C(Cc2ccc(F)c(F)c2)C(=O)CC(C)(C)[C@@]1(O)/C=C/C(C)=C\C(=O)O [Example 22, (2Z,4E)-5-((S)-3-(3,4-difluorobenzyl)-1-hydroxy-2,6,6-trimethyl-4-oxocyclohex-2-en-1-yl)-3-methylpenta-2,4-dienoic acid]
Arabidopsis seed germination inhibition potency: −−
